Calls of active or inactive are those of the source. No cut-off for these calls is given here.
What was measured:
[1] = test system: Chikungunya virus; experiment: (§1) Antiviral activity against CHIKV infected in human NHDF cells assessed as reduction in virus titer in cell supernatant by measuring inhibition of plaque formation using Vero cells at 10 uM pretreated with NHDF cells followed by infected with virus incubated for 24 hrs and measured following infection of supernatants with Vero cells for 48 hrs by plaque based methylene blue dye analysis; type: functional; settings: time 72 hrs
[2] = test system: Chikungunya virus; experiment: as §1, with “cells” for “cells at 10 uM”; type: functional, organism-based
[3] = test system: NHDF; experiment: (§2) Cytotoxicity against human NHDF cells assessed as cell viability measured after 24 hrs by Cell Titer Glo luminescent assay; type: cell-based; settings: nhdf, 24 h
[4] = test system: Chikungunya virus; type: functional; settings: 181-25, C6, time 48 hrs
[5] = test system: Chikungunya virus; experiment: (§3) Antiviral activity against CHIKV 99659 infected in Asian tiger mosquito C6/36 cells assessed as reduction in virus titer in cell supernatant by measuring inhibition of plaque formation using Vero cells and measured following infection of supernatants with Vero cells for 48 hrs pi by serial dilution plaque based methylene blue dye analysis; type: functional; settings: Chikungunya virus, 99659, C6
[6] = test system: Chikungunya virus; experiment: as §3, with “LR2006-OPY1” for “99659”; type: functional
[7] = test system: Chikungunya virus; experiment: as §3, with “37997” for “99659”; type: functional; settings: Chikungunya virus, 37997, C6
[8] = test system: Mayaro virus; experiment: as §3, with “Mayaro virus TRVL” for “CHIKV 99659”; type: functional
[9] = test system: Onyong-nyong virus; experiment: as §3, with “O'nyong-nyong virus” for “CHIKV 99659”; type: functional
[10] = as §3, with “Ross river virus” for “CHIKV 99659”; type: functional; settings: La Crosse virus
[11] = test system: Venezuelan equine encephalitis virus; experiment: as §3, with “Venezuelan equine encephalitis virus TC83” for “CHIKV 99659”; type: functional
[12] = test system: Chikungunya virus; experiment: as §1, with “mouse NIH3T3” for “human NHDF”, “cells” for “cells at 10 uM”, “NIH3T3” for “NHDF”; type: functional; settings: dose 10 µM
[13] = test system: Chikungunya virus; experiment: Antiviral activity against CHIKV infected in IFN regulatory factor 3 telomerized human fibroblast cells assessed as reduction in virus titer in cell supernatant by measuring inhibition of plaque formation using Vero cells […] followed by infected with virus incubated for 24 hrs and measured following infection of supernatants with Vero cells for 48 hrs by plaque based …; type: functional; settings: time 72 hrs
[14] = test system: Chikungunya virus; experiment: Antiviral activity against CHIKV-nLuc RNA transfected NHDF cells assessed as decrease in CHIKV RNA at 10 uM pretreated 1 hr before transfection measured after 12 hrs by Nano-Glo luciferase assay; type: functional, organism-based; settings: time 13.0 hrs
[15] = test system: Chikungunya virus; type: functional, organism-based; settings: 181-25, NHDF, dose 20.0 µM, time 13.0 hrs
[16] = test system: Chikungunya virus; type: functional, organism-based; settings: 181-25, NHDF, dose 20.0 µM, time 13.0 hrs; remark: listed apart in the source
[17] = test system: Chikungunya virus; type: functional, organism-based; settings: 181-25, NIH3T3, dose 10.0 µM
[18] = test system: Chikungunya virus; experiment: Antiviral activity against resistance mutation induced CHIKV-117 infected in […] cells assessed as viral infectivity in Vero cells at 10 uM measured up to 24 hrs of post infection by supernatant was quantified by plaque assay; type: functional, organism-based; settings: time hrs <=24
[19] = test system: Chikungunya virus; experiment: Antiviral activity against resistance mutation induced CHIKV-119 infected in […] cells assessed as viral infectivity in Vero cells at 10 uM measured up to 24 hrs of post infection by supernatant was quantified by plaque assay; type: functional, organism-based; settings: time hrs <=24
[20] = test system: Chikungunya virus; experiment: Antiviral activity against resistance mutation induced CHIKV-117/119 infected in […] cells assessed as viral infectivity in Vero cells at 10 uM measured up to 24 hrs of post infection by supernatant was quantified by plaque assay; type: functional, organism-based; settings: time hrs <=24
[21] = test system: Chikungunya virus; experiment: Antiviral activity against wild type CHIKV-117 infected in […] cells assessed as viral infectivity in Vero cells at 10 uM measured up to 24 hrs of post infection by supernatant was quantified by plaque assay; type: functional; settings: time hrs <=24
[22] = test system: Chikungunya virus; experiment: Antiviral activity against CHIKV-nLuc RNA transfected NHDF cells assessed as decrease in Nano-luc signal at 20 uM pretreated 24 hrs before transfection in presence of uridine measured after 24 hrs by Nano-Glo luciferase assay; type: functional, organism-based; settings: time 48.0 hrs
[23] = test system: Chikungunya virus; experiment: Antiviral activity against CHIKV-nLuc RNA transfected NHDF cells assessed as decrease in Nano-luc signal at 20 uM pretreated 24 hrs before transfection in presence of guanosine measured after 24 hrs by Nano-Glo luciferase assay; type: functional, organism-based
[24] = molecular target: Dihydroorotate dehydrogenase (quinone), mitochondrial (Homo sapiens, UniProt Q02127)
[25] = Aqueous solubility of the compound; type: physicochemical; settings: aqueous; read-out: solubility
[26] = as §2; type: cell-based; settings: NHDF cells
[27] = Octanol-aqueous buffer distribution coefficient, log D of the compound by LC-MS analysis; type: physicochemical
[28] = Metabolic stability in human liver microsomes assessed as half life in presence of NADPH incubated up to 45 mins by LC-MS/MS analysis; type: ADME, Microsome
[29] = test system: Una virus; experiment: as §3, with “Una virus MAC150” for “CHIKV 99659”; type: functional
[30] = test system: Venezuelan equine encephalitis virus; experiment: (§4) Antiviral activity against Venezuelan equine encephalitis virus TC83 infected in human NDHF cells assessed as reduction in virus titer in cell supernatant by measuring inhibition of plaque formation using Vero cells at 10 uM measured following infection of supernatants with Vero cells for 48 hrs pi by serial dilution plaque based methylene blue dye analysis; type: functional, NHDF
[31] = test system: West Nile virus; experiment: as §4, with “West nile” for “Venezuelan equine encephalitis”, “virus” for “virus TC83”, “HEK293” for “human NDHF”; type: functional
[32] = test system: dengue virus type 2; experiment: as §4, with “DENV2” for “Venezuelan equine encephalitis virus TC83”, “HEK293” for “human NDHF”; type: functional
[33] = Half life in C57BL/6 mouse at 1 mg/kg, iv; type: ADME, organism-based; settings: in vivo
[34] = Half life in C57BL/6 mouse at 40 mg/kg, po; type: ADME, organism-based; settings: in vivo
[35] = Half life in C57BL/6 mouse at 40 mg/kg, ip; type: ADME, organism-based; settings: in vivo
[36] = Half life in C57BL/6 mouse at 40 mg/kg, sc; type: ADME, organism-based; settings: in vivo
[37] = AUC in C57BL/6 mouse at 1 mg/kg, iv; type: ADME, organism-based; set-up: dose 1 mg/kg; settings: in vivo
[38] = AUC in C57BL/6 mouse at 40 mg/kg, po; type: ADME, organism-based; set-up: dose 40 mg/kg; settings: in vivo
[39] = AUC in C57BL/6 mouse at 40 mg/kg, ip; type: ADME, organism-based; set-up: dose 40 mg/kg; settings: in vivo
[40] = AUC in C57BL/6 mouse at 40 mg/kg, sc; type: ADME, organism-based; set-up: dose 40 mg/kg; settings: in vivo
[41] = Cmax in C57BL/6 mouse at 40 mg/kg, po; type: ADME, organism-based; set-up: route oral, dose 40 mg/kg; settings: in vivo
[42] = Cmax in C57BL/6 mouse at 40 mg/kg, ip; type: ADME, organism-based; set-up: route intraperitoneal, dose 40 mg/kg; settings: in vivo
[43] = Cmax in C57BL/6 mouse at 40 mg/kg, sc; type: ADME, organism-based; set-up: route subcutaneous, dose 40 mg/kg; settings: in vivo
[44] = Oral bioavailability in C57BL/6 mouse at 40 mg/kg; type: ADME, organism-based; settings: in vivo
[45] = Bioavailability in C57BL/6 mouse at 40 mg/kg, ip; type: ADME, organism-based; settings: in vivo
[46] = Bioavailability in C57BL/6 mouse at 40 mg/kg, sc; type: ADME, organism-based; settings: in vivo
[47] = test system: Chikungunya virus; experiment: (§5) Antiviral activity against CHIKV infected in C57BL/6 mouse right foot assessed as reduction in serum of ipsilateral tissue at 80 mg/kg, po pretreated 2 hrs before infection followed treated twice a day for 3 days and measured 12 hr post infection of last dose by dilution plaque assay on Vero cells; type: functional, organism-based; settings: time 86.0 hrs
[48] = test system: Chikungunya virus; experiment: as §5, with “contralateral ankles” for “ipsilateral”; type: functional, organism-based; settings: time 86.0 hrs
[49] = test system: Chikungunya virus; experiment: Antiviral activity against CHIKV infected in C57BL/6 mouse right foot assessed as reduction in site of infection at 80 mg/kg, po pretreated 2 hrs before infection followed treated twice a day for 3 days and measured 12 hr post infection of last dose by dilution plaque assay on Vero cells; type: functional, organism-based; settings: time 86.0 hrs
[50] = test system: Chikungunya virus; experiment: Antiviral activity against CHIKV infected in C57BL/6 mouse right foot assessed as reduction in spleen at 80 mg/kg, po pretreated 2 hrs before infection followed treated twice a day for 3 days and measured 12 hr post infection of last dose by dilution plaque assay on Vero cells; type: functional, organism-based; settings: time 86.0 hrs
[51] = test system: Chikungunya virus; experiment: Antiviral activity against CHIKV infected in C57BL/6 mouse right foot assessed as reduction in quadriceps tissue at 80 mg/kg, po pretreated 2 hrs before infection followed treated twice a day for 3 days and measured 12 hr post infection of last dose by dilution plaque assay on Vero cells; type: functional, organism-based; settings: time 86.0 hrs
[52] = Toxicity in CHIKV infected in C57BL/6 mouse right foot assessed as body weight change at 80 mg/kg, po pretreated 2 hrs before infection followed treated twice a day for 3 days and measured 12 hr post infection of last dose; type: organism-based; settings: in vivo, 86 h
[53] = Cytotoxicity against HEK293 cells at 10 uM; type: cell-based; settings: human

Sequence of Dihydroorotate dehydrogenase (quinone), mitochondrial (Q02127 whole entry): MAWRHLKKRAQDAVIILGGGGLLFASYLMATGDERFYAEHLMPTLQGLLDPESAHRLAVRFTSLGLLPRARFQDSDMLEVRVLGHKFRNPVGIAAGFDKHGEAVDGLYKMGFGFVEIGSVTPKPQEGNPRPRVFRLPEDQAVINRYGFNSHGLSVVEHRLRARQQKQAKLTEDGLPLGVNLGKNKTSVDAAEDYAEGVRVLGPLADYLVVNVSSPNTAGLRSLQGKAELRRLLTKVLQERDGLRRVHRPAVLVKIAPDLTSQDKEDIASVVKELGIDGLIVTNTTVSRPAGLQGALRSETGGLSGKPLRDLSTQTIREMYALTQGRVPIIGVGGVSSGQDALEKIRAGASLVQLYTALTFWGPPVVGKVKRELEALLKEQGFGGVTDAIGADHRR

COc1cc2c(cc1NC(=O)c1ccc(C(C)(C)C)cc1)CCCC2
log(activity) [1]: 2.5 | EC50 [2]: 1.45 µM | CC50 [3]: 169 µM | EC90 [4]: 1.45 µM | EC90 [5]: 1 µM | EC90 [6]: 0.4 µM | EC90 [7]: 3.39 µM | EC90 [8]: 5.1 µM | EC90 [9]: 0.3 µM | EC90 [10]: 0.32 µM | EC90 [11]: 2.1 µM | EC90 [12]: 3.16 µM | EC90 [13]: 1.03 µM | inhibition [14]: Active | inhibition [15]: Active | inhibition [16]: Active | Activity [17]: Active | Activity [18]: Active | Activity [19]: Active | Activity [20]: Active | log(activity) [21]: 1.5 | Activity [22]: inactive | Activity [23]: Active | IC50 [24]: 5 µM

COc1cc2c(cc1C(=O)Nc1ccc(C(C)(C)C#N)cc1)CCCCC2
log(activity) [1]: 4.5 | solubility [25]: < 1 µM | EC50 [2]: 0.27 µM | CC50 at 24 h [26]: > 30 µM | logD [27]: > 4.4 | half-life [28]: 132 h | EC90 [4]: 0.98 µM | EC90 [5]: 1.1 µM | EC90 [7]: 1.5 µM | EC90 [8]: 2.3 µM | EC90 [9]: 0.89 µM | EC90 [10]: 0.85 µM | EC90 [29]: 2.5 µM | EC90 [11]: 2.1 µM | log(activity) [30]: 3.1 | log(activity) [31]: 3.4 | log(activity) [32]: 2 | half-life [33]: 2.02 h | half-life [34]: 9.9 h | half-life [35]: 18.5 h | half-life [36]: 18.6 h | AUC [37]: 497 ng·h/mL | AUC [38]: 7950 ng·h/mL | AUC [39]: 8570 ng·h/mL | AUC [40]: 744 ng·h/mL | Cmax [41]: 642 ng/mL | Cmax [42]: 858 ng/mL | Cmax [43]: 90 ng/mL | bioavailability [44]: 41% | bioavailability [45]: 43% | bioavailability [46]: 4% | Activity [47]: inactive | Activity [48]: inactive | Activity [49]: inactive | Activity [50]: Active | Activity [51]: Active | Activity [52]: Non-Toxic | Activity [22]: inactive | Activity [23]: Active | CC50 [53]: > 30 µM | IC50 [24]: 0.31 µM

Reference: ChEMBL document CHEMBL4834424, “Targeting Chikungunya Virus Replication by Benzoannulene Inhibitors” (J Med Chem, 2021)
